Tests used:
Assay type in all cases: cell-based
[1] = tested on: Staphylococcus aureus; experiment: ASTM E2315-16 Time-Kill Procedure; conditions: for Log Reduction: 30 seconds
Experimental: (§1) Select compounds were tested for antimicrobial activity using ASTM method […]-16 (Standard Guide for Assessment of Antimicrobial Activity using a Time-Kill Procedure). Six microbes were tested: Candida albicans, Staphylococcus aureus, Staphylococcus epidermidis. Escherichia coli, Salmonella abony, and Listeria monocytogenes. Four chlorhexidine salts were tested: chlorhexidine di-α-glucoheptonate (Sample G), chlorhexidine di-β73-glucoheptonate (Sample H), chlorhexidine digluconate (Sample I), and chlorhexidine diacetate (Sample P). Both chlorhexidine diglucoheptonate salts were prepared at a 2:1 molar ratio of glucoheptonic acid to chlorhexidine. Dilutions of each salt were prepared using sterile water (20-30 ppm hardness), to achieve the desired wt. % concentration. Two glucoheptonic acids were evaluated for antimicrobial activity against the same six microbes as Example 13. Sample L was α-glucoheptonic acid. Sample M was β73-glucoheptonic acid. Benzalkonium salts were also tested using the same procedure as set forth in Example 13. The samples were benzalkonium chloride (C12-C16) (Sample C), benzalkonium chloride (C12-C14) (Sample D), benzalkonium chloride in combination with a stoichiometric amount of α-glucoheptonate (Sample F), and benzalkonium chloride in combination with a molar excess of α-glucoheptonate (Sample N). Sample F was prepared by mixing and extensively heating a stoichiometric quantity (1:1) of sodium α-glucoheptonate with benzalkonium chloride, typified by the C12-14 alkyl chain. Sample N was prepared by simply blending benzalkonium chloride, typified by the C12-16 chain, with a molar excess of sodium α-glucoheptonate (1.6:1). Both Samples F and N contain sodium chloride.

[2] = tested on: Candida albicans; experiment: ASTM E2315-16 Time-Kill Procedure; conditions: for Log Reduction: 30 seconds
Experimental: as §1

[3] = tested on: Staphylococcus epidermidis; experiment: ASTM E2315-16 Time-Kill Procedure; conditions: for Log Reduction: 30 seconds
Experimental: as §1

[4] = tested on: all microbes (Candida albicans, Staphylococcus aureus, Staphylococcus epidermidis, Escherichia coli, Salmonella abony, Listeria monocytogenes); experiment: ASTM E2315-16 Time-Kill Procedure, average across all microbes; conditions: for Log Reduction, Average, all microbes: 30 seconds; for average Log Reduction (LR) in microbial population across all microbes: 10 minutes
Experimental: Select compounds were tested for antimicrobial activity using ASTM method […]-16 (Standard Guide for Assessment of Antimicrobial Activity using a Time-Kill Procedure). Six microbes were tested: Candida albicans, Staphylococcus aureus, Staphylococcus epidermidis. Escherichia coli, Salmonella abony, and Listeria monocytogenes. Four chlorhexidine salts were tested: chlorhexidine di-α-glucoheptonate (Sample G), chlorhexidine di-β73-glucoheptonate (Sample H), chlorhexidine digluconate (Sample I), and chlorhexidine diacetate (Sample P). Both chlorhexidine diglucoheptonate salts were prepared at a 2:1 molar ratio of glucoheptonic acid to chlorhexidine. Dilutions of each salt were prepared using sterile water (20-30 ppm hardness), to achieve the desired wt. % concentration. Samples G, H, I, and P were also tested at a concentration of 0.60 wt % active and evaluated for the average Log Reduction in microbial population at 10 minutes, across all microbes. A further test was conducted at a concentration of 1.0 wt % active and evaluated for the average Log Reduction in microbial population at 10 minutes, across all microbes. Benzalkonium salts were also tested using the same procedure as set forth in Example 13. The samples were benzalkonium chloride (C12-C16) (Sample C), benzalkonium chloride (C12-C14) (Sample D), benzalkonium chloride in combination with a stoichiometric amount of α-glucoheptonate (Sample F), and benzalkonium chloride in combination with a molar excess of α-glucoheptonate (Sample N). Sample F was prepared by mixing and extensively heating a stoichiometric quantity (1:1) of sodium α-glucoheptonate with benzalkonium chloride, typified by the C12-14 alkyl chain. Sample N was prepared by simply blending benzalkonium chloride, typified by the C12-16 chain, with a molar excess of sodium α-glucoheptonate (1.6:1). Both Samples F and N contain sodium chloride. A further antimicrobial test was conducted to determine the log reduction at 10 minutes. Samples C, D, F, and N are as defined above.

[5] = tested on: Escherichia coli; experiment: ASTM E2315-16 Time-Kill Procedure; conditions: 30 seconds
Experimental: as §1, with “concentration.” for “concentration. Two glucoheptonic acids were evaluated for antimicrobial activity against the same six microbes as Example 13. Sample L was α-glucoheptonic acid. Sample M was β73-glucoheptonic acid.”

[6] = tested on: Salmonella abony; experiment: ASTM E2315-16 Time-Kill Procedure; conditions: 30 seconds
Experimental: as §1, with “concentration.” for “concentration. Two glucoheptonic acids were evaluated for antimicrobial activity against the same six microbes as Example 13. Sample L was α-glucoheptonic acid. Sample M was β73-glucoheptonic acid.”

[7] = tested on: Listeria monocytogenes; experiment: ASTM E2315-16 Time-Kill Procedure; conditions: for Log Reduction: 30 seconds
Experimental: as §1, with “concentration.” for “concentration. Two glucoheptonic acids were evaluated for antimicrobial activity against the same six microbes as Example 13. Sample L was α-glucoheptonic acid. Sample M was β73-glucoheptonic acid.”

[8] = 2.5 % w/w, contact time 10 minutes
[9] = 5.0 % w/w, contact time 5 minutes
[10] = 5.0 % w/w, contact time 10 minutes

SMILES	Log Reduction ([1]; 0.20% (wt. %))	Log Reduction ([1]; 0.60% (wt. %))	Log Reduction ([1]; 1.00% (wt. %))	Log Reduction ([2]; 0.20% (wt. %))	Log Reduction ([2]; 0.60% (wt. %))	Log Reduction ([2]; 1.00% (wt. %))	Log Reduction ([3]; 0.20% (wt. %))	Log Reduction ([3]; 0.60% (wt. %))	Log Reduction ([3]; 1.00% (wt. %))	Log Reduction, Average, all microbes ([4]; 0.20% (wt. %))	Log Reduction, Average, all microbes ([4]; 0.60% (wt. %))	Log Reduction, Average, all microbes ([4]; 1.00% (wt. %))	average Log Reduction (LR) in microbial population across all microbes ([4]; 0.60 wt % active)	average Log Reduction (LR) in microbial population across all microbes ([4]; 1.0 wt % active)	Log Reduction ([5]; 0.20% (wt. %))	Log Reduction ([5]; 0.60% (wt. %))	Log Reduction ([5]; 1.00% (wt. %))	Log Reduction ([6]; 0.20% (wt. %))	Log Reduction ([6]; 0.60% (wt. %))	Log Reduction ([6]; 1.00% (wt. %))	also measured
CC(=O)O.CC(=O)O.NC(=N\CCCCCC/N=C(N)/N=C(\N)Nc1ccc(Cl)cc1)/N=C(\N)Nc1ccc(Cl)cc1 [Sample P, chlorhexidine diacetate]	3.22	4.93	5.07	2.56	3.35	4.48	1.57	3.57	3.75	2.06	3.02	3.71	4.09	5.17	1.54	1.59	3.07	2.17	3.34	4.34	Log Reduction ([7]; 0.20% (wt. %)): 1.29; Log Reduction ([7]; 0.60% (wt. %)): 1.36; Log Reduction ([7]; 1.00% (wt. %)): 1.55
O=C(O)[C@H](O)[C@H](O)[C@@H](O)[C@H](O)[C@H](O)CO [Sample M, β73-glucoheptonic acid]																					Log Reduction (LR) [1, 8]: 3.13; Log Reduction (LR) [1, 9]: 4.07; Log Reduction (LR) [1, 10]: 4.13; Log Reduction (LR) [2, 9]: 3.47; Log Reduction (LR) [2, 10]: 4.00; Log Reduction (LR) ([3]; 1.0 % w/w, contact time 10 minutes): 3.47; Log Reduction (LR) ([3]; 2.5 % w/w, contact time 5 minutes): 3.17; Log Reduction (LR) [3, 8]: 3.50; Log Reduction (LR) [3, 9]: 3.39; Log Reduction (LR) [3, 10]: 3.47
N=C(NCCCCCCNC(=N)NC(=N)Nc1ccc(Cl)cc1)NC(=N)Nc1ccc(Cl)cc1.O=C(O)C(O)C(O)C(O)C(O)C(O)CO.O=C(O)C(O)C(O)C(O)C(O)C(O)CO [Sample G, chlorhexidine di-α-glucoheptonate]	0.77	1.07	3.06	0.75	1.45	4.56	0.95	1.91	3.65	1.74	2.12	3.90	3.85	5.34	3.57	3.66	3.77	3.04	3.14	3.39	performance in the Time-Kill Test ([2]; in words): performed very strongly; Log Reduction ([7]; 0.20% (wt. %)): 1.34; Log Reduction ([7]; 0.60% (wt. %)): 1.49; Log Reduction ([7]; 1.00% (wt. %)): 4.99; performance in the Time-Kill Test ([7]; in words): performed very strongly
N=C(NCCCCCCNC(=N)NC(=N)Nc1ccc(Cl)cc1)NC(=N)Nc1ccc(Cl)cc1.O=C(O)[C@H](O)[C@@H](O)[C@H](O)[C@H](O)CO.O=C(O)[C@H](O)[C@@H](O)[C@H](O)[C@H](O)CO [Sample I, chlorhexidine digluconate]	1.77	3.07	3.37	2.91	4.35	6.40	2.00	3.08	3.25	2.24	3.22	3.85	4.84	5.46	2.93	3.07	3.27	1.86	2.63	2.89	Log Reduction ([7]; 0.20% (wt. %)): 1.99; Log Reduction ([7]; 0.60% (wt. %)): 3.13; Log Reduction ([7]; 1.00% (wt. %)): 3.91
O=C(O)[C@H](O)[C@H](O)[C@@H](O)[C@H](O)[C@H](O)CO [Sample L, α-glucoheptonic acid]																					Log Reduction (LR) [2, 8]: 3.65; Log Reduction (LR) [2, 10]: 3.00; Log Reduction (LR) [3, 8]: 3.39; Log Reduction (LR) [3, 9]: 3.05; Log Reduction (LR) [3, 10]: 3.50

— US20240197938A1, “ANTIMICROBIAL COMPOUNDS BASED ON GLUCOHEPTONIC ACIDS AND THEIR SALTS” (HARCROS CHEMICALS, INC., priority 2021, published 2024)
